Source: patent publication US20260133193A1, “COMPOSITIONS AND METHODS FOR TREATING INFLAMMATORY DISEASES” (University of Washington, priority 2018, published 2026)

What was measured:
Format in all cases: cell-based, human
FcgRIIA on neutrophils [1] = assay: FcgRIIA shedding, flow cytometry of neutrophil cell surface FcgRs; settings: for effect on R848 (TLR7/8)-mediated shedding of FcgRIIA on neutrophils: agent added before R848, flow cytometry IV.3; for neutrophil cell surface expression of FcgRIIA after stimulus: flow cytometry, clone IV.3, vs non-stimulated
From the text: To determine the mechanism for the TLR-induced reduction in RNP-IC phagocytosis, we analyzed the neutrophil surface expression of FcgRs after exposure to TLR ligand. Neutrophils were activated with R848 and cell surface expression of FcgRs analyzed by flow cytometry. The results were presented as FcgR levels as compared to no R848 added (% of control). The experiment was repeated five (FcgRI), seven (FcgRIII), and twenty-five (FcgRIIA) times; combined results were compared using paired t test (FcgRIIA, P<0.0001; FcgRI, P=0.027; FcgRIII, P=0.0044). […] In this experiment, neutrophils were activated with the TLR7/8 agonist R848 and analyzed for FcgRIIA at different time-points and concentrations. The experiment was repeated four (concentration) and six (kinetics) times; combined results were compared using paired t test (30 min, P=0.0158; 60 min, P<0.0001; 120 min, P=0.0003; 0.125 μg/mL, P=0.0071; 0.25 μg/mL, P=0.0058; 0.5 μg/mL, P=0.0008; 1 μg/mL, P<0.0001; 2 μg/mL, P<0.0001). […] For these experiments, neutrophils were activated with TLR ligands (LPS, 1 μg/mL, PAM3CSK4 (5 μg/mL), CpG DNA (2 μg/mL), Loxoribine (0.1 mM), CL075 (2.5 μg/mL) or R848 (2 μg/mL)) for 60 minutes or 4 hours and analyzed for FcgRIIA, FcgRII or CD11b and CD66b cell surface expression by flow cytometry. Experiments were repeated six (LPS, P=0.0008), eight (CpG DNA, P=0.035; Loxoribine, P<0.0001, and CL075, P<0.0001), ten (PAM3CSK4, P<0.0001) and forty times (R848, P<0.0001); combined results were compared using paired t test. Additional experiments were repeated four and eight times; combined results were compared using paired t test (CD11b: R848, P<0.0001; LPS, P=0.0002; PAM, P<0.0001; CpG DNA, P<0.0001; CD66b: R848, P<0.0001; LPS, P<0.0001; PAM, P<0.0001; CpG DNA, P=0.014).
Neutrophils were activated by LPS (1 μg/mL), R848 (2 μg/mL), PAM3CSK4 (5 μg/mL), Loxoribine (0.1 mM), CL075 (2.5 μg/mL) or CpG DNA (2 μg/mL) for 30 minutes, followed by analysis of cell surface expression of CD32A (IV.3; Stemcell Technologies, FUN-2, BioLegend), CD16 (clone 3G8), CD64 (clone 10.1), and CD66b (all from BioLegend) by flow cytometry. For intracellular staining, neutrophils were fixed in 2% paraformaldehyde for 10 minutes, permeabilized with saponin (diluted 1:1000 in PBS) for 15 minutes and stained with anti-CD32A antibodies diluted 1:100. In some experiments, neutrophils were incubated with inhibitors (DPI (25 μM, Sigma), apocynin (100 μM, Sigma), GM-6001 (10 μM, Enzo Life Sciences), LY294002 (10 μM), cOmplete Protease Inhibitor Cocktail Tablets (1× dissolved in H2O, Roche), neutrophil elastase IV inhibitor (25 μM, Calbiochem), E-64 (1 μM, Sigma), 4-(2-Aminoethyl)benzenesulfonyl fluoride hydrochloride (AEBSF, 0.1 mM, Sigma), CMK (25 μM, Enzo Life Sciences), cytochalasin B (5 μM, Sigma) or chymostatin (10 μg/mL, Sigma)) or recombinant furin (100 ng/mL, maximal dose tolerated by the neutrophils, Peprotech) 30 minutes prior to addition of stimuli. In some experiments cell surface levels of B cell activating factor (BAFF, Biolegend) was analyzed according to the same protocol as described above. Monocytes and pDCs were detected using antibodies to CD14 (BioLegend) and CD304 (Miltenyi Biotech), respectively.

neutrophils = assay: ROS analysis in neutrophils (DHR123, OxyBURST); settings: flow cytometry and fluorimetry, cell impermeable ROS dye
FcgRIIA on neutrophils [2] = assay: SLE serum-mediated FcgRIIA shedding on healthy control neutrophils; settings: sera from 6 SLE patients, IV.3/FUN2
Experimental: As neutrophil and monocyte FcgRIIA shedding was highly correlated in SLE patients upon ex vivo analysis (correlation analysis for ex vivo monocyte and neutrophil (PMN) FcgRIIA shedding in SLE patients was performed; combined results were analyzed using Spearman's correlation (r=0.84, P<0.0001)), we asked whether this could be attributed to circulating proteases, likely neutrophil-derived. […] Consistent with a role of RNA ICs, serum-mediated FcgRIIA shedding was higher in patients with anti-Sm/RNP antibodies (sera from 6 SLE patients, pre-incubated with either RNase, a pan-protease inhibitor (prot.inh.), or cytochalasin B (Cyto B, 5 μM) were added to neutrophils from a healthy individual and FcgRIIA shedding analyzed by flow cytometry; combined results were compared using paired t test (RNase: P=0.012; prot.inh.: P=0.0002; Cyto B: P<0.0001)). […] Finally, SLE serum-mediated shedding of FcgRIIA from healthy control neutrophils strongly correlated with the FcgRIIA shedding observed upon ex vivo isolation of the SLE patient's neutrophils (correlation between ex vivo FcgRIIA shedding observed on SLE neutrophils with the shedding ability by the serum obtained from the same SLE patients (n=12); combined results were analyzed by Spearman's correlation (r=0.73, P=0.0096)). […]

BAFF = BAFF cell surface expression on neutrophils; settings: furin 100 ng/mL, 30 minutes before R848
Experimental: To determine which protease(s) were involved in the shedding of FcgRIIA, neutrophils were incubated with selective protease inhibitors prior to the addition of the TLR agonist. Cell surface levels of FcgRIIA (IV.3) was analyzed by flow cytometry upon R848 activation in the presence of a pan protease inhibitor or inhibitors of matrix metalloproteases (GM6001, 10 μM), cysteine proteases (E-64, 1 μM), serine proteases (AEBSF, 100 μM), neutrophil elastase (Elastase inhibitor IV, 25 μM), cathepsin G (chymostatin, 10 μg/mL) or furin (chloromethylketone (CMK, 25 μM). The experiment was repeated three (E-64), four (Pan Prot.inh., P<0.0001; AEBSF, P=0.0004; chymostatin; and CMK, P=0.0038), five (GM6001), and seven (NEi) times; combined results were compared using paired t test. […] Additionally, neutrophils were incubated with furin (100 ng/mL) or CMK 30 minutes prior to addition of R848. BAFF cell surface expression was analyzed by flow cytometry. […] Briefly, neutrophils were incubated with furin (100 ng/mL) in presence or absence of R848 and analyzed for FcgRIIA levels by flow cytometry. […] Finally, supernatant from activated neutrophils was fractionated and analyzed for capacity to induce shedding of monocyte FcgRIIA without, or with prior boiling of the fractions. […]

Row | Molecule | effect on R848 (TLR7/8)-mediated shedding of FcgRIIA on neutrophils (FcgRIIA on neutrophils [1]) | neutrophil cell surface expression of FcgRIIA after stimulus (FcgRIIA on neutrophils [1]) | further results
1 | Cl.NCCc1ccc(S(=O)(=O)F)cc1 [AEBSF, 4-(2-Aminoethyl)benzenesulfonyl fluoride hydrochloride] | dependent on serine proteases |  | 
2 | CCCc1nc2c(N)nc3ccccc3c2s1 [CL075] |  | reduced neutrophil cell surface levels of FcgRIIA, but not of FcgRIIIB | 
3 | [Cl-].c1ccc2c(c1)[I+]c1ccccc1-2 [DPI] | completely restored cell surface levels of FcgRIIA |  | effect on LPS- or PAM3CSK4-mediated shedding of FcgRIIA (FcgRIIA on neutrophils [1]; neutrophils activated with LPS or PAM3CSK4 in presence of DPI): dependent on NADPH oxidase
4 | C=CCn1c(=O)n([C@@H]2O[C@H](CO)[C@@H](O)[C@H]2O)c2nc(N)[nH]c(=O)c21 [Loxoribine] |  | reduced neutrophil cell surface levels of FcgRIIA, but not of FcgRIIIB | 
5 | CCCCCCCCCCCCCC(=O)O[C@@H]1[C@@H](C)[C@@]2(O)[C@@H](C=C(CO)C[C@]3(O)C(=O)C(C)=C[C@@H]23)[C@@H]2C(C)(C)[C@]12OC(C)=O [PMA] |  |  | cellular localization of ROS generation (neutrophils): induced both intracellular and extracellular ROS generation
6 | COc1cc(C(C)=O)ccc1O [apocynin] | completely restored cell surface levels of FcgRIIA |  | 
7 | C=C1[C@@H](C)[C@H]2[C@H](Cc3ccccc3)NC(=O)[C@]23OC(=O)/C=C/[C@H](O)CCC[C@@H](C)C/C=C/[C@H]3[C@@H]1O [cytochalasin B] |  |  | effect on SLE serum-mediated FcgRIIA shedding (FcgRIIA on neutrophils [2]): almost completely abrogated serum-mediated FcgRIIA shedding
8 | PAM3CSK4 |  | reduced neutrophil cell surface levels of FcgRIIA, but not of FcgRIIIB | 
9 | furin: recombinant furin, pro-protein convertase (Peprotech) | did not affect FcgRIIA shedding on neutrophils |  | BAFF cell surface expression (BAFF): increased cell surface BAFF levels
